Data as given in PubChem BioAssay AID1963833 (Molecular Pharmacology Branch, DTP, NCI, 2024).

Test system: 883617-216-R-J1-PDC complex spheroid viability
Experiment: Anticancer human tumor 883617-216-R-J1-PDC patient-derived bladder carcinoma cell line growth inhibition [POLQ]
Conditions: for IC50: curve of first compound; for viability, T/C: stronger effect = lower value
In short: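 Growth inhibition in 3D: complex spheroids (tumor PDC, HUVEC, MSC) treated with POLQ inhibitor combinations; where Cmax unknown, highest tested concentration 10 microM, except SN-38 at 1 microM.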

[1] = second compound 0.0316 µM, first compound 0.0316 µM
[2] = second compound 0.0316 µM, first compound 0.1 µM
[3] = second compound 0.0316 µM, first compound 0.316 µM
[4] = second compound 0.0316 µM, first compound 1 µM
[5] = second compound 0.0316 µM, first compound 3.16 µM
[6] = second compound 0.0316 µM, first compound 10 µM
[7] = second compound 0.1 µM, first compound 0.0316 µM
[8] = second compound 0.1 µM, first compound 0.1 µM
[9] = second compound 0.1 µM, first compound 0.316 µM
[10] = second compound 0.1 µM, first compound 1 µM
[11] = second compound 0.1 µM, first compound 3.16 µM
[12] = second compound 0.1 µM, first compound 10 µM
[13] = second compound 0.316 µM, first compound 0.0316 µM
[14] = second compound 0.316 µM, first compound 0.1 µM
[15] = second compound 0.316 µM, first compound 0.316 µM
[16] = second compound 0.316 µM, first compound 1 µM
[17] = second compound 0.316 µM, first compound 3.16 µM
[18] = second compound 0.316 µM, first compound 10 µM
[19] = second compound 1 µM, first compound 0.0316 µM
[20] = second compound 1 µM, first compound 0.1 µM
[21] = second compound 1 µM, first compound 0.316 µM
[22] = second compound 1 µM, first compound 1 µM
[23] = second compound 1 µM, first compound 3.16 µM
[24] = second compound 1 µM, first compound 10 µM
[25] = second compound 3.16 µM, first compound 0.0316 µM
[26] = second compound 3.16 µM, first compound 0.1 µM
[27] = second compound 3.16 µM, first compound 0.316 µM
[28] = second compound 3.16 µM, first compound 1 µM
[29] = second compound 3.16 µM, first compound 3.16 µM
[30] = second compound 3.16 µM, first compound 10 µM
[31] = second compound 10 µM, first compound 0.0316 µM
[32] = second compound 10 µM, first compound 0.1 µM
[33] = second compound 10 µM, first compound 0.316 µM
[34] = second compound 10 µM, first compound 1 µM
[35] = second compound 10 µM, first compound 3.16 µM
[36] = second compound 10 µM, first compound 10 µM
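Note: spheroids exposed to compounds for seven days before readout.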
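Throughout, for viability, T/C: 100% = DMSO vehicle control viability.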

C=CC(=O)N1CCN(c2nc(=O)n(-c3c(C)ccnc3C(C)C)c3nc(-c4c(O)cccc4F)c(F)cc23)C(C)C1 (stereo unspecified) + Nc1ccc(C#CCN(C(=O)Cc2ncc(C(F)(F)F)cc2C(F)(F)F)c2ccc(F)cc2)nn1
IC50 (second compound 0.0316 µM): > 10 µM | IC50 (second compound 0.1 µM): > 10 µM | IC50 (second compound 0.316 µM): > 10 µM | IC50 (second compound 1 µM): > 10 µM | IC50 (second compound 3.16 µM): > 10 µM | IC50 (second compound 10 µM): > 10 µM | viability, T/C [1]: 71.3% | viability, T/C [2]: 69.1% | viability, T/C [3]: 67.8% | viability, T/C [4]: 82.7% | viability, T/C [5]: 82.3% | viability, T/C [6]: 83.9% | viability, T/C [7]: 63.3% | viability, T/C [8]: 72.8% | viability, T/C [9]: 64.7% | viability, T/C [10]: 72% | viability, T/C [11]: 81.9% | viability, T/C [12]: 88.2% | viability, T/C [13]: 68.5% | viability, T/C [14]: 64.8% | viability, T/C [15]: 61.8% | viability, T/C [16]: 72.5% | viability, T/C [17]: 77.3% | viability, T/C [18]: 73.4% | viability, T/C [19]: 61.4% | viability, T/C [20]: 57.2% | viability, T/C [21]: 71.7% | viability, T/C [22]: 78.3% | viability, T/C [23]: 75.8% | viability, T/C [24]: 91.2% | viability, T/C [25]: 60.4% | viability, T/C [26]: 67.2% | viability, T/C [27]: 71.5% | viability, T/C [28]: 70.6% | viability, T/C [29]: 77.8% | viability, T/C [30]: 91% | viability, T/C [31]: 64.5% | viability, T/C [32]: 63.8% | viability, T/C [33]: 73.9% | viability, T/C [34]: 77.2% | viability, T/C [35]: 91.1% | viability, T/C [36]: 72.1%

CC(C)n1c(=O)n(C)c2cnc3cc(F)c(-c4ccc(OCCCN5CCCCC5)nc4)cc3c21 + Nc1ccc(C#CCN(C(=O)Cc2ncc(C(F)(F)F)cc2C(F)(F)F)c2ccc(F)cc2)nn1
IC50 (second compound 0.0316 µM): > 10 µM | IC50 (second compound 0.1 µM): > 10 µM | IC50 (second compound 0.316 µM): > 10 µM | IC50 (second compound 1 µM): > 10 µM | IC50 (second compound 3.16 µM): > 10 µM | IC50 (second compound 10 µM): > 10 µM | viability, T/C [1]: 95.3% | viability, T/C [2]: 94.5% | viability, T/C [3]: 96% | viability, T/C [4]: 108% | viability, T/C [5]: 82.6% | viability, T/C [6]: 75.6% | viability, T/C [7]: 95.7% | viability, T/C [8]: 114% | viability, T/C [9]: 87.6% | viability, T/C [10]: 100% | viability, T/C [11]: 95% | viability, T/C [12]: 69.8% | viability, T/C [13]: 112% | viability, T/C [14]: 89.5% | viability, T/C [15]: 98.9% | viability, T/C [16]: 119% | viability, T/C [17]: 80.8% | viability, T/C [18]: 73.8% | viability, T/C [19]: 108% | viability, T/C [20]: 104% | viability, T/C [21]: 113% | viability, T/C [22]: 104% | viability, T/C [23]: 92.2% | viability, T/C [24]: 72.7% | viability, T/C [25]: 101% | viability, T/C [26]: 95.7% | viability, T/C [27]: 104% | viability, T/C [28]: 98% | viability, T/C [29]: 98.3% | viability, T/C [30]: 76.4% | viability, T/C [31]: 117% | viability, T/C [32]: 121% | viability, T/C [33]: 120% | viability, T/C [34]: 103% | viability, T/C [35]: 109% | viability, T/C [36]: 81.8%

CC1COCCN1c1cc(-c2ccnn2C)c2ccnc(-c3ccn[nH]3)c2n1 (stereo unspecified) + Nc1ccc(C#CCN(C(=O)Cc2ncc(C(F)(F)F)cc2C(F)(F)F)c2ccc(F)cc2)nn1
IC50 (second compound 0.0316 µM): 0.292 µM | IC50 (second compound 0.1 µM): 0.408 µM | IC50 (second compound 0.316 µM): 0.479 µM | IC50 (second compound 1 µM): 0.422 µM | IC50 (second compound 3.16 µM): 0.572 µM | IC50 (second compound 10 µM): 0.482 µM | viability, T/C [1]: 76.9% | viability, T/C [2]: 65.1% | viability, T/C [3]: 48% | viability, T/C [4]: 35.7% | viability, T/C [5]: 36.3% | viability, T/C [6]: 25.3% | viability, T/C [7]: 73.1% | viability, T/C [8]: 59.3% | viability, T/C [9]: 59.1% | viability, T/C [10]: 33.6% | viability, T/C [11]: 32.6% | viability, T/C [12]: 24.9% | viability, T/C [13]: 75.4% | viability, T/C [14]: 58.4% | viability, T/C [15]: 59% | viability, T/C [16]: 41.4% | viability, T/C [17]: 34.9% | viability, T/C [18]: 26% | viability, T/C [19]: 68.2% | viability, T/C [20]: 60.5% | viability, T/C [21]: 51.7% | viability, T/C [22]: 41.7% | viability, T/C [23]: 44.8% | viability, T/C [24]: 34.8% | viability, T/C [25]: 70.9% | viability, T/C [26]: 61.3% | viability, T/C [27]: 56.1% | viability, T/C [28]: 44% | viability, T/C [29]: 39.1% | viability, T/C [30]: 28.9% | viability, T/C [31]: 84.5% | viability, T/C [32]: 70% | viability, T/C [33]: 59.5% | viability, T/C [34]: 35.4% | viability, T/C [35]: 40.1% | viability, T/C [36]: 34.4%
